Data: ChEMBL document CHEMBL2057090, “Discovery of novel PI3Kγ/δ inhibitors as potential agents for inflammation” (Bioorg Med Chem Lett, 2012)
Converted amounts (≈) assume the structure as drawn.

Legend:
[1] = target: Phosphatidylinositol 4,5-bisphosphate 3-kinase catalytic subunit beta isoform (Homo sapiens, UniProt P42338); test: Inhibition of PI3Kbeta in human HL60 cell lysate by kinobead assay; assay type: cell-free, HL-60
[2] = Antiinflammatory activity in human neutrophils assessed as inhibition of fMLP-induced migration; assay type: functional, cell-based; details: Neutrophil
[3] = target: Phosphatidylinositol 4,5-bisphosphate 3-kinase catalytic subunit alpha isoform (Homo sapiens, UniProt P42336); test: Inhibition of PI3Kalpha in human HL60 cell lysate by kinobead assay
Sequence of Phosphatidylinositol 4,5-bisphosphate 3-kinase catalytic subunit alpha isoform (P42336 whole entry, canonical isoform): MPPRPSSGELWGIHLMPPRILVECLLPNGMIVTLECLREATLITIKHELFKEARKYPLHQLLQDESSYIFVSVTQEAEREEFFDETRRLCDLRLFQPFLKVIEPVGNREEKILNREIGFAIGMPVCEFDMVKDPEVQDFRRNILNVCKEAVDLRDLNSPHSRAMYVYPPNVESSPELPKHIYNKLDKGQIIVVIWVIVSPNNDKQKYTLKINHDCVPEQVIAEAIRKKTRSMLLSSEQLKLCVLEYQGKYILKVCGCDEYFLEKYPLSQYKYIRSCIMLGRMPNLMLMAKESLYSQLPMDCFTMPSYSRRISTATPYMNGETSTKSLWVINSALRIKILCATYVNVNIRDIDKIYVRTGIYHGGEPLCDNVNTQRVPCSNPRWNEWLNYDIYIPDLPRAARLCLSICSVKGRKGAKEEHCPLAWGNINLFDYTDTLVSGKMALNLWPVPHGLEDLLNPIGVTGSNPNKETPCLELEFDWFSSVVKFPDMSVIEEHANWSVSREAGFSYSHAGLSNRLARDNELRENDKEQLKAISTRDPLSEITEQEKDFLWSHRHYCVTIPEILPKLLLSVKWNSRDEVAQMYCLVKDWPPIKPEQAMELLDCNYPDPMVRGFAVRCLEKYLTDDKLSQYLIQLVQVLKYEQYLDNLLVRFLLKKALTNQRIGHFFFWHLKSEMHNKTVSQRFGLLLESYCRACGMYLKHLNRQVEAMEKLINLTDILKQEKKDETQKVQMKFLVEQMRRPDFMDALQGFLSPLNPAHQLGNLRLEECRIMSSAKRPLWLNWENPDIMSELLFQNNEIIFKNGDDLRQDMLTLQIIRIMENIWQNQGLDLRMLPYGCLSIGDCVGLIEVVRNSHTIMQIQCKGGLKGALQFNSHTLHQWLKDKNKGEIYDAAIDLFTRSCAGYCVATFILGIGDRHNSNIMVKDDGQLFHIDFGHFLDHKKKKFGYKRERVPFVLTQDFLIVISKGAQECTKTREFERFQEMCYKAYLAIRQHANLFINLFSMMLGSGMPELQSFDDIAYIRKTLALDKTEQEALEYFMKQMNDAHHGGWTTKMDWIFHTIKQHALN

[4] = target: Phosphatidylinositol 4,5-bisphosphate 3-kinase catalytic subunit gamma isoform (Homo sapiens, UniProt P48736); test: Inhibition of PI3Kgamma in human HL60 cell lysate by kinobead assay
Sequence of Phosphatidylinositol 4,5-bisphosphate 3-kinase catalytic subunit gamma isoform (P48736 whole entry, canonical isoform): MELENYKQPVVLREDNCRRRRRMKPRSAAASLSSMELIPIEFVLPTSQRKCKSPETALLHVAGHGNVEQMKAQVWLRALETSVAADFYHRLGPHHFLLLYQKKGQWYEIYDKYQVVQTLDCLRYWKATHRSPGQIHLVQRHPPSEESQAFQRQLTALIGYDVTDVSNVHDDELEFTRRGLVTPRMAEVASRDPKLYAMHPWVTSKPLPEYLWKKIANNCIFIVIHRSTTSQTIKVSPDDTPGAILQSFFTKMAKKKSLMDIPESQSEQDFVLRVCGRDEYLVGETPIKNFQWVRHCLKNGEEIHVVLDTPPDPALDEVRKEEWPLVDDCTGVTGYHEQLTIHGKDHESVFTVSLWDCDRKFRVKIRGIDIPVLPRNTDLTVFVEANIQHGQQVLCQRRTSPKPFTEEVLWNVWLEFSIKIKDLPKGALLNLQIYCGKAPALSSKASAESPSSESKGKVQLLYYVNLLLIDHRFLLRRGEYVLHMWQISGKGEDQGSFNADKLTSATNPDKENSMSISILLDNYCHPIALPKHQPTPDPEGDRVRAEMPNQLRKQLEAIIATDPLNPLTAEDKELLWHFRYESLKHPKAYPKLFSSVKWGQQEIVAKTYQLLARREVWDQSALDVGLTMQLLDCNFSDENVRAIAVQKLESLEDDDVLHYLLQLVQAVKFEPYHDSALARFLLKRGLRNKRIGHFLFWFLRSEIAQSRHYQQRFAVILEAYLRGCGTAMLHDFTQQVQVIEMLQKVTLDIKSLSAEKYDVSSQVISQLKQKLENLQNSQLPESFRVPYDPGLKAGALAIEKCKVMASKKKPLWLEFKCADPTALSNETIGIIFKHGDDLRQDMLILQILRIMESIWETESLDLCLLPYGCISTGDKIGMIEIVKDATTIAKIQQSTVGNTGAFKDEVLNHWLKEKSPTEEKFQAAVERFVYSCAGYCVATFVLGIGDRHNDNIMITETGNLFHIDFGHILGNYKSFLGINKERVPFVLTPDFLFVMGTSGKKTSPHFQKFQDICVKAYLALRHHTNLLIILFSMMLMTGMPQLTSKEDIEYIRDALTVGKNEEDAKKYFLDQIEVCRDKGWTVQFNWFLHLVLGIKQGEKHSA

[5] = target: T1, Phosphatidylinositol 4,5-bisphosphate 3-kinase catalytic subunit delta isoform (Homo sapiens, UniProt O00329); test: Inhibition of PI3Kdelta in human HL60 cell lysate by kinobead assay
T1 sequence (O00329 whole entry): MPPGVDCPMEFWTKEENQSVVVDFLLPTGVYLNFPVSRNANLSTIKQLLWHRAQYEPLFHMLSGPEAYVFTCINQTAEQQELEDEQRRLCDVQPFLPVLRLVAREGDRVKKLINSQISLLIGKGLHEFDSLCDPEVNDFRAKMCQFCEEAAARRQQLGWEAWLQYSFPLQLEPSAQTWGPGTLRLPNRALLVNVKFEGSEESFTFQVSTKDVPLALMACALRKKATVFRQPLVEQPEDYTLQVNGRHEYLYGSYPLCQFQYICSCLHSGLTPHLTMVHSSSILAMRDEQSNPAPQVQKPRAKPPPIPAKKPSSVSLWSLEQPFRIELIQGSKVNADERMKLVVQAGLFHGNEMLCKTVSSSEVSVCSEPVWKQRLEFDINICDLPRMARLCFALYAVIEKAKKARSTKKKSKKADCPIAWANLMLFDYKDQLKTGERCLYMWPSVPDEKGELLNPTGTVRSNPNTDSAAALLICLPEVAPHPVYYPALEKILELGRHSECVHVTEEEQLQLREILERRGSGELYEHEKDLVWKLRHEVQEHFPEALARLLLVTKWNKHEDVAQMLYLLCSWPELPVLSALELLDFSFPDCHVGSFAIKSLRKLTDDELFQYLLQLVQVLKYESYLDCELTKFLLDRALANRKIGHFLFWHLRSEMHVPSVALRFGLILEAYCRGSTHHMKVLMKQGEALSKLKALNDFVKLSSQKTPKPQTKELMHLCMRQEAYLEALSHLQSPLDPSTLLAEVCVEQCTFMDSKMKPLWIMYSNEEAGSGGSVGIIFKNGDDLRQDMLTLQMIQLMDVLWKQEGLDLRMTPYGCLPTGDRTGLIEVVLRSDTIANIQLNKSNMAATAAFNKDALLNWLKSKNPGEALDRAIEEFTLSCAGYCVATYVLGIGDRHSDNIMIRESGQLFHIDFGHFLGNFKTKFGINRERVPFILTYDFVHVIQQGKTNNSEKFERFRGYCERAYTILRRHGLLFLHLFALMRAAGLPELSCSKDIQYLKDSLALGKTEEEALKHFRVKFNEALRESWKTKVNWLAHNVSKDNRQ

Liver microsomes [6] = test: Intrinsic clearance in human liver microsomes assessed per g of liver; assay type: ADME, Microsome
Liver microsomes [7] = test: Intrinsic clearance in rat liver microsomes assessed per g of liver; assay type: ADME, Microsome
[8] = Kinetic solubility in 1%DMSO solution; assay type: physicochemical; details: read-out: Kinetic_solubility
Mus musculus = test: Antiinflammatory activity in BALB/c mouse assessed as reduction in LPS-induced neutrophil accumulation in bronchoalveolar lung fluid at 0.5 mg, it administered 1 hr prior to LPS-challenge and measured after 8 hrs relative to vehicle treated control; assay type: functional; design: scale not given: the % may be the effect or the level left
[9] = Efflux ratio of apparent permeability across human Caco2 cells; assay type: ADME, cell-based; details: Caco-2
[10] = Apparent permeability from apical to basal side of human Caco2 cells; assay type: ADME, cell-based; details: Caco-2
Plasma [11] = test: Drug metabolism in iv dosed rat plasma assessed as CZC19945 formation; assay type: ADME, organism-based; details: in vivo
[12] = Clearance in iv dosed rat; assay type: ADME, organism-based; details: in vivo
Plasma [13] = test: Drug metabolism in iv dosed rat plasma assessed as 2-(3-(6-(5-(N-tert-butylsulfamoyl)pyridin-3-yl)-[1,2,4]triazolo[1,5-a]pyridin-2-yl)ureido)acetic acid formation; assay type: ADME, organism-based; details: in vivo

Sequence of Phosphatidylinositol 4,5-bisphosphate 3-kinase catalytic subunit beta isoform (P42338 whole entry, canonical isoform): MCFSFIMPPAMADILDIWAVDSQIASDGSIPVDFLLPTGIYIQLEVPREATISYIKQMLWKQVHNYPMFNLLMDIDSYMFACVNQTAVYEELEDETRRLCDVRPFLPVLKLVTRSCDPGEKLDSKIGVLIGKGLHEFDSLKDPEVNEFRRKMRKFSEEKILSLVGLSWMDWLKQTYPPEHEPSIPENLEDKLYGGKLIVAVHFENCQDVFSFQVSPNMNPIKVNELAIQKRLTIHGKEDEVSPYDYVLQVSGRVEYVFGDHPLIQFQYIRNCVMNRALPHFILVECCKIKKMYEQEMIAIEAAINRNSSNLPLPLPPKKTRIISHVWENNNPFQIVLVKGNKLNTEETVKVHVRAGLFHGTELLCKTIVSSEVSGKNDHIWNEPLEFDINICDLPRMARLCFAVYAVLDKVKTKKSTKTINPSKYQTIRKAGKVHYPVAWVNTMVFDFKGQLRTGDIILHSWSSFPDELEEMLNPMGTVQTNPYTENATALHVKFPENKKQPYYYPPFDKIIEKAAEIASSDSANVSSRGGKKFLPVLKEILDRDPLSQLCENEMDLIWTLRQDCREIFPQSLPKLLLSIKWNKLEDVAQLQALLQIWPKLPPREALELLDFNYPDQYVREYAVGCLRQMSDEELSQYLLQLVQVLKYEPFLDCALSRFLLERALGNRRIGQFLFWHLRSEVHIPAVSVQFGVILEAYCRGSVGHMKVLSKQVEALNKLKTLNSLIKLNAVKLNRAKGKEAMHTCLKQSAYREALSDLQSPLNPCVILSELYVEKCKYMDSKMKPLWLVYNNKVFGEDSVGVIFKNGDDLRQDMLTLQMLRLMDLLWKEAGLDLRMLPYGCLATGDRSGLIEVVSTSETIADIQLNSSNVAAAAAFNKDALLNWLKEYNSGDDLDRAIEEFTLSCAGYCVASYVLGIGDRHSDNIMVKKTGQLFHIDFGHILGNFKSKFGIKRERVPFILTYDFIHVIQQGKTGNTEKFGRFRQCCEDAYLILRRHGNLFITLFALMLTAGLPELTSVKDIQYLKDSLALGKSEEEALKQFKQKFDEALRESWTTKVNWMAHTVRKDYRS

Row | IC50 [1] | IC50 [2] | IC50 [3] | IC50 [4] | IC50 [5] | CLint (Liver microsomes [6]) | CLint (Liver microsomes [7]) | solubility kinetic [8] | efflux ratio [9] | Papp A→B [10] | Drug metabolism (Plasma [11]) | clearance [12] | Drug metabolism (Plasma [13]) | Compound | Activity (Mus musculus)
1 | 251 nM | 316 nM | 3160 nM | 10 nM | 79.4 nM |  |  |  |  |  |  |  |  | CC(C)(C)NS(=O)(=O)c1cncc(-c2ccc3nc(NC(=O)NCCc4nnc(C5CC5)o4)nn3c2)c1 | 
2 | > 200 nM | 50.1 nM | 1260 nM | 15.8 nM | 20 nM | 1.4 mL/min/g | 0.9 mL/min/g | 65 µM (≈ 32.7 µg/mL) |  |  |  |  |  | CC(C)(C)NS(=O)(=O)c1cncc(-c2ccc3nc(NC(=O)NCCN4CCOCC4)nn3c2)c1 | 
3 | 1000 nM | 398 nM | > 3160 nM | 31.6 nM | 25.1 nM |  |  |  |  |  |  |  |  | CC(C)(C)NS(=O)(=O)c1cncc(-c2ccc3nc(NC(=O)NCCc4ccccc4)nn3c2)c1 | 
4 | 398 nM | 501 nM | 398 nM | 3.98 nM | 15.8 nM | 0 mL/min/g | 0.8 mL/min/g | > 100 µM |  |  | Not Active | > 200 mL/min/kg | Not Active | CC(C)(C)NS(=O)(=O)c1cncc(-c2ccc3nc(NC(=O)NCC(=O)N4CCOCC4)nn3c2)c1 | 34%
5 | 398 nM | 794 nM | > 5010 nM | 12.6 nM | 794 nM |  |  |  |  |  |  |  |  | CNC(=O)Nc1nc2ccc(-c3cncc(S(=O)(=O)NC(C)(C)C)c3)cn2n1 | 
6 | 79.4 nM | 251 nM | 2000 nM | 25.1 nM | 12.6 nM |  |  |  |  |  |  |  |  | Cc1noc(C)c1CCNC(=O)Nc1nc2ccc(-c3cncc(S(=O)(=O)NC(C)(C)C)c3)cn2n1 | 
7 | 1260 nM | 1580 nM | 1000 nM | 6.31 nM | 63.1 nM |  |  |  |  |  |  |  |  | CC(C)(C)NS(=O)(=O)c1cncc(-c2ccc3nc(NC(=O)NCC(=O)N4CCCC4)nn3c2)c1 | 
8 | 3980 nM | 7940 nM | > 25100 nM | 126 nM | 3160 nM |  |  |  |  |  |  |  |  | CC(C)(C)NS(=O)(=O)c1cncc(-c2ccc3nc(NC(=O)N4CCOCC4)nn3c2)c1 | 

Second part, the molecule before the results:

Row | Compound | IC50 [1] | IC50 [2] | IC50 [3] | IC50 [4] | IC50 [5] | CLint (Liver microsomes [6]) | CLint (Liver microsomes [7]) | solubility kinetic [8] | efflux ratio [9] | Papp A→B [10] | Drug metabolism (Plasma [11]) | clearance [12] | Drug metabolism (Plasma [13]) | Activity (Mus musculus)
9 | CN1CCN(C(=O)CNC(=O)Nc2nc3ccc(-c4cncc(S(=O)(=O)NC(C)(C)C)c4)cn3n2)CC1 | 1000 nM | 1260 nM | 794 nM | 2.51 nM | 12.6 nM |  |  |  |  |  |  |  |  | 
10 | CC(C)(C)NS(=O)(=O)c1cncc(-c2ccc3nc(NC(=O)NCCn4cccn4)nn3c2)c1 | 631 nM | 158 nM | 631 nM | 25.1 nM | 200 nM |  |  |  |  |  |  |  |  | 
11 | CC(C)(C)NS(=O)(=O)c1cncc(-c2ccc3nc(N)nn3c2)c1 | 200 nM | 1000 nM | 2510 nM | 25.1 nM | 1580 nM |  |  |  |  |  |  |  |  | 
12 | CC(C)(C)NS(=O)(=O)c1cncc(-c2ccc3nc(NC(=O)NCCCn4nnc(C5CC5)n4)nn3c2)c1 | 2510 nM | 251 nM | > 6310 nM | 63.1 nM | 50.1 nM |  |  |  |  |  |  |  |  | 
13 | CC(C)(C)NS(=O)(=O)c1cncc(-c2ccc3nc(NC(=O)NCc4ccccc4)nn3c2)c1 | 3160 nM | 1580 nM | > 20000 nM | 63.1 nM | 1580 nM |  |  |  |  |  |  |  |  | 
14 | CC(C)(C)NS(=O)(=O)c1cncc(-c2ccc3nc(NC(=O)NCCn4nnc(C5CC5)n4)nn3c2)c1 | 63.1 nM | 79.4 nM | 794 nM | 2.51 nM | 6.31 nM | 0 mL/min/g | 0.4 mL/min/g | > 100 µM | 252 | 0.08 ×10⁻⁶ cm/s |  |  |  | 37%
15 | CC(C)(C)NS(=O)(=O)c1cncc(-c2ccc3nc(NC(=O)NCCc4cnccn4)nn3c2)c1 | 126 nM | 126 nM | 1260 nM | 6.31 nM | 25.1 nM |  |  |  |  |  |  |  |  | 
16 | CN(C)CCNC(=O)Nc1nc2ccc(-c3cncc(S(=O)(=O)NC(C)(C)C)c3)cn2n1 | > 1000 nM | 12600 nM | > 5010 nM | 126 nM | 1260 nM |  |  |  |  |  |  |  |  | 
17 | CC(C)(C)NS(=O)(=O)c1cncc(-c2ccc3nc(NC(=O)Nc4ccccc4)nn3c2)c1 | > 100000 nM |  | > 100000 nM | 251 nM | > 25100 nM |  |  |  |  |  |  |  |  | 
18 | Cc1nc(CCNC(=O)Nc2nc3ccc(-c4cncc(S(=O)(=O)NC(C)(C)C)c4)cn3n2)cs1 | > 200 nM | 398 nM | 794 nM | 7.94 nM | 15.8 nM |  |  |  |  |  |  |  |  | 
19 | CS(=O)(=O)c1cncc(-c2ccc3nc(N)nn3c2)c1 | 2510 nM |  | 10000 nM | 100 nM | 6310 nM |  |  |  |  |  |  |  |  | 
20 | CN(C)C(=O)CNC(=O)Nc1nc2ccc(-c3cncc(S(=O)(=O)NC(C)(C)C)c3)cn2n1 | 1260 nM | 794 nM | 12600 nM | 3.16 nM | 79.4 nM | 0.5 mL/min/g | 0.9 mL/min/g | < 6.5 µM | 109 | 0.54 ×10⁻⁶ cm/s |  |  |  | 
21 | CNC(=O)CNC(=O)Nc1nc2ccc(-c3cncc(S(=O)(=O)NC(C)(C)C)c3)cn2n1 | > 2000 nM | 20000 nM | > 15800 nM | 15.8 nM | 794 nM |  |  |  |  |  |  |  |  | 
